# Laboratory results as given in patent US10023615B2, “Efficient transport into white blood cells” (priority 2008, dated 2018).
# Entries after “also recorded” stand apart in the source; their conditions may differ. Ends that are not written are not given here.
# What was measured:
# [1] = test system: bleomycin induced lung fibrosis; assay: Bleomycin (BLM) induced lung fibrosis; assay type: in vivo, C57BL/6 mice; conditions: for cell recruitment in bronchoalveolar lavage space: 3 times in 10 days
# Source text: In order to determine the activity of the exemplary all-D retro-inverso IB(s) peptide XG-102 (SEQ ID NO: 233) in the treatment of Chronic Obstructive Pulmonary Disease (COPD) XG-102 (SEQ ID NO: 233) is used in an animal model of Bleomycin induced acute lung inflammation and fibrosis. The protocol of bleomycin induced inflammation and fibrosis has been described before in the literature. The aim of the Experiment was to investigate the effect of XG-102 (SEQ ID NO: 233) by subcutaneous (s.c.) route on neutrophil recruitment in broncho alveolar lavage (BAL) and lung in bleomycin induced inflammation and fibrosis: • at 1 day after a single bleomycin administration (10 mg/kg) • and at day 10 with the development of fibrosis
# 1) Method and Experimental Approach • The test compound XG-102 (SEQ ID NO: 233) at two doses and vehicle control were given s.c. with a single intranasal administration of bleomycin and mice were analyzed after 1 and 10 days. The animals used in the model were 10 C57BL/6 mice (8 weeks old) per group. The experimental groups included vehicle, 0.001 mg/kg XG-102 (SEQ ID NO: 233) and 0.1 mg/kg XG-102 (SEQ ID NO: 233), and the treatment consisted of repeated sub-cutaneous administration of XG-102 (SEQ ID NO: 233), prior to bleomycin administration then every 3 days. Acute lung inflammation at 24 h was monitored by BAL lavage, cytology, cell counts, and lung myeloperoxidase activity. The effect of the compound was compared with vehicle controls. Lung fibrosis was assessed histologically using hematoxylin and eosin staining at day 10 after the single dose of bleomycin.
# 1.1) Bleomycin Administration • Bleomycin sulfate in saline (10 mg/kg body weight) from Bellon Laboratories (Montrouge, France) or saline were given through the airways by nasal instillation in a volume of 40 μL under light ketamine-xylasine anesthesia. […]
# 1.4) Cell Count and Determination • Total cell count was determined in BAL fluid using a Malassez hemocytometer. […]
# [2] = Stability of XG-102 stock solution and diluted formulations; assay type: physicochemical
# Source text: a) Materials and Methods • i) Animals • A total of twenty (20) male db/db mice (8 weeks old) were obtained from Charles River (Germany). Upon arrival, animals were group housed (n=6-7/group) and offered regular rodent chow (Altromin standard #1324 chow; C. Petersen, Ringsted, Denmark) and water ad libitum unless otherwise stated. • The mice were housed under a 12:12 L/D cycle (lights on at 4:00 and lights off at 16:00) and in temperature and humidity controlled rooms. • ii) Groups and Randomization • On day −4, mice were randomized according to blood glucose level (fasted; blood glucose measured on Biosen S line analyzer (EKF diagnostic, Germany) to participate in one of the following drug treatment groups (n=6): • 1) Vehicle control, S.C. (physiological saline) • 2) XG-102 (SEQ ID NO: 233); 1 mg/kg; s.c. • 3) XG-102 (SEQ ID NO: 233); 10 mg/kg; s.c • All doses listed were calculated for the free-base. Drug purity: 95.28%, peptide content: 78.0%. All compounds were administered sub-cutaneously (s.c.) in a volume of 3 ml/kg. The formulation instructions for vehicle control and XG-102 (SEQ ID NO: 233) were as follows: • First, XG-102 (SEQ ID NO: 233) was dissolved in the vehicle. The formulations (concentrations of 0.33 and 3.3 mg/ml, corresponding to the doses of 1 and 10 mg/kg, respectively) were prepared according to the procedure detailed below. Concentrations were calculated and expressed taking into account test items purity and peptide content (multiplier coefficient was 1.346). • Preparation of a stock solution: the freeze-dried test compound XG-102 (SEQ ID NO: 233) is thawed for one hour minimum and prepared as a stock solution in the vehicle at 1 mM (corresponding to 3.823 mg/mL). Aliquots are prepared for each treatment day and stored at approximately −80° C. Dilutions of this stock solution to the required concentrations are performed on each treatment day; • Storage of the stock solution: at approximately −80° C.; • Storage of the diluted preparations: at room temperature for 24 hours maximum. • Prior to solubilisation, the powder was stored at −20° C. […]
# db/db mice = db/db mice model of type 2 diabetes, chronic treatment; assay type: in vivo, mouse; conditions: 10 mg/kg
substance,measurement,setting,value
dqsrpvqpflnIttprkprpprrrqrrkkrg (DQSRPVQPFLNLTTPRKPRPPRRRQRRKKRG; not fully specified (some residues); printed as dqsrpvqpflnIttprkprpprrrqrrkkrg) [XG-102],cell recruitment in bronchoalveolar lavage space,[1]; 0.001 mg/kg s.c.,reduced significantly the lymphocyte recruitment and the number of total cells recruited; also recorded: decreases the Bleomycin-induced later inflammation
same,"histology: inflammatory cells accumulation, fibrotic areas, loss of lung architecture","[1]; 0.001 mg/kg, day 10",A decrease of these parameters was observed; also recorded: attenuates the Bleomycin-induced fibrosis
same,cell recruitment in bronchoalveolar lavage space,[1]; 0.1 mg/kg s.c.,had no effect
same,stability of the stock solution,"[2]; 1 mM in vehicle, approximately −80° C.",3 months
same,storage of unused diluted material,[2]; 4-8° C.,up to 7 days
same,stability of the diluted formulations for animal dosing,[2]; room temperature,24 h
same,"plasma levels of insulin, MCP-1, IL-6, tPAI-1, TNF","db/db mice; day 57, 77 and 108",no significant effects
same,plasma resistin,db/db mice; day 77 and 108,significantly higher
same,"24 hour food and water intake, urine and faeces production (metabolic cages)",db/db mice; study day 68,no significant effects
